The record followed here is patent US10640495B2, “Heterocycle derivatives having TrkA inhibitory activity” (Shionogi & Co., Ltd., priority 2015, dated 2020).

Molecules are shown by their SMILES.

Chain of human TrkA (P04629 440-796): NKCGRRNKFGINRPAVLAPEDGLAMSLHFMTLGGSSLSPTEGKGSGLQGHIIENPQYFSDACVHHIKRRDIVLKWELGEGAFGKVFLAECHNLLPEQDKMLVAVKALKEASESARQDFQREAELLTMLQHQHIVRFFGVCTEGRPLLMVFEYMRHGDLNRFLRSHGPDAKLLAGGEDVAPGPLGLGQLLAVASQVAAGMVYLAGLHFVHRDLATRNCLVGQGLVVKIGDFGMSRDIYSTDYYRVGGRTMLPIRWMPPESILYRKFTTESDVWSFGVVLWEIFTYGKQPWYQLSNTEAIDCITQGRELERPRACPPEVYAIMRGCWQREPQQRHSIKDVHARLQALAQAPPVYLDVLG

One experiment concerns the target human TrkA (Homo sapiens (Human), UniProt P04629). Put plainly: Human TrkA inhibition assay (Test Example 2). The settings on record: Table 152, human TrkA inhibition; read-out: IC50_nM. The experiment is classed as biochemical. The method in brief: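 Mobility-shift readout of phosphorylated versus unphosphorylated fluorescent peptide gave conversion ratio, normalized to DMSO and no-enzyme wells; IC50 by logistic fit of 10- or 15-point 3-fold dilutions. Conditions: 1 nmol/L enzyme, 15 min compound preincubation, then 500 μmol/L ATP plus 1.5 μmol/L peptide, 120 min, 37 °C.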
For the molecule `COCCN1C[C@@H](NC(=O)Nc2c(C)c(C3=CCN(C(=O)OC(C)(C)C)CC3)nn2-c2ccccc2)[C@H](c2ccnc(F)c2)O1` (racemic) [Compound I-41], the IC50 was less than 100 nM.
The same measure, in the same setting: as for `COCCN1C[C@@H](NC(=O)Nc2c(C)c(C3=CCN(C(=O)OC(C)(C)C)CC3)nn2-c2ccccc2)[C@H](c2ccc(F)c(F)c2)O1` (racemic) [Compound I-29], the figure is less than 100 nM.

Staying with this experiment, now noted: Table 153, human TrkA inhibition; read-out: IC50.
Regarding `COCCN1C[C@@H](NC(=O)Nc2c(C)c(-c3cnc(N(C)C)nc3)nn2-c2ccccc2)[C@H](c2ccnc(F)c2)O1` (racemic) [Compound I-132], the IC50 is less than 100 nM.
As for `COCCN1C[C@@H](NC(=O)Nc2cc(-c3cnc(OC)c(C(=O)NC4CCOCC4)c3)nn2C)[C@H](c2ccnc(F)c2)O1` (racemic) [Compound I-94], the IC50 was greater than 1000 nM.
Consider `COCCN1C[C@@H](NC(=O)Nc2c(C)c(-c3cnc(C)c(N=S(C)(C)=O)c3)nn2-c2ccccc2)[C@H](c2ccc(F)c(F)c2)O1` (racemic) [Compound I-176], for which the IC50 is less than 100 nM.
Consider `COCCN1C[C@@H](NC(=O)Nc2c(C)c(-c3cnc4c(c3)c(C)nn4C)nn2-c2ccccc2)[C@H](c2ccnc(F)c2)O1` (racemic) [Compound I-114], for which the IC50 is less than 100 nM.
On the same count and under the same terms, the result for `COCCN1C[C@@H](NC(=O)Nc2c(C)c(-c3cc(CO)c(=O)n(C)c3)nn2-c2ccccc2)[C@H](c2cnc(F)c(F)c2)O1` (racemic) [Compound I-81] reads less than 100 nM; that for `COCCN1C[C@@H](NC(=O)Nc2c(C)c(-c3cc(C(=O)NC4CCOCC4)c(=O)n(C)c3)nn2-c2ccccc2)[C@H](c2cnc(F)c(F)c2)O1` (racemic) [Compound I-74], less than 100 nM.
Consider `CCNC(=O)c1ncc(-c2nn(-c3ccccc3)c(NC(=O)N[C@@H]3CN(CCOC)O[C@H]3c3ccnc(F)c3)c2C)cc1C` (racemic) [Compound I-167], for which the IC50 was less than 100 nM.

The experiment is the same for the next values; noted with them: Table 154, human TrkA inhibition; read-out: IC50.
In the case of `COCCN1C[C@@H](NC(=O)Nc2c(C)c(-c3cnc(OC)c(C(=O)NOC)c3)nn2-c2ccccc2)[C@H](c2ccnc(F)c2)O1` (racemic) [Compound I-260], the IC50 is less than 100 nM.
For `CNC(=O)c1cc(-c2nn(-c3ccccc3)c(NC(=O)N[C@@H]3C[C@@H](CCOC)O[C@H]3c3ccnc(F)c3)c2C)cn(C)c1=O` [Compound I-271], the IC50 is less than 100 nM.
As for `COCCN1C[C@@H](NC(=O)Nc2c(C)c(-c3ccnc(C(=O)O)c3)nn2-c2ccccc2)[C@H](c2ccnc(F)c2)O1` (racemic) [Compound I-212], the IC50 is less than 100 nM.
With `COCCN1C[C@@H](NC(=O)Nc2c(C)c(-c3cnc4c(c3)[nH]c(=O)n4C)nn2-c2ccccc2)[C@H](c2ccnc(F)c2)O1` (racemic) [Compound I-208], the IC50 is less than 100 nM.

Staying with this experiment, now noted: Table 155, human TrkA inhibition; read-out: IC50.
In the case of `COCCN1C[C@@H](NC(=O)Nc2c(C)c(-c3cnc4c(cnn4C)c3)nn2-c2ccccc2)[C@H](c2ccc(F)c(F)c2)O1` [Compound I-473], the IC50 is less than 100 nM.
For the molecule `COCCN1C[C@@H](NC(=O)Nc2c(C)c(-c3cnc(OC4CCN(C)CC4)nc3)nn2-c2ccccc2)[C@H](c2cc(F)nc(F)c2)O1` (racemic) [Compound I-418], the IC50 was less than 100 nM.
`COCCN1C[C@@H](NC(=O)Nc2c(C)c(-c3cnc(OC4CCN(C)CC4)nc3)nn2-c2ccccc2)[C@H](c2ccnc(F)c2)O1` (racemic) [Compound I-381]: the IC50 is less than 100 nM.
On to `COCCN1C[C@@H](NC(=O)Nc2c(C)c(-c3cnc(COC)nc3)nn2-c2ccccc2)[C@H](c2ccnc(F)c2)O1` (racemic) [Compound I-444], for which the IC50 is less than 100 nM.
Regarding `COCCN1C[C@@H](NC(=O)Nc2c(C)c(-c3cnc4c(c3)c(C(=O)N3CCN(C)CC3)nn4C)nn2-c2ccccc2)[C@H](c2ccnc(F)c2)O1` (racemic) [Compound I-377], the IC50 is less than 100 nM.
The same measure, in the same setting: as for `COCCN1C[C@@H](NC(=O)Nc2c(C)c(-c3cnc(C4CCOCC4)nc3)nn2-c2ccccc2)[C@H](c2ccnc(F)c2)O1` (racemic) [Compound I-513], the figure is less than 100 nM; as for `COCCN1C[C@H](NC(=O)Nc2c(C)c(-c3cnc(C)nc3)nn2-c2ccccc2)[C@@H](c2cc(F)nc(F)c2)O1` [Compound I-362], greater than 1000 nM; as for `COCCN1C[C@@H](NC(=O)Nc2c(C)c(-c3cccc(N(C)C)c3)nn2-c2ccccc2)[C@H](c2ccc(F)c(F)c2)O1` [Compound I-450], less than 100 nM.
As for `COCCN1C[C@@H](NC(=O)Nc2c(C)c(Oc3ccnc(F)c3)nn2-c2ccccc2)[C@H](c2ccnc(F)c2)O1` (racemic) [Compound I-442], the IC50 lay within 100 to 1000 nM.
On to `COCCN1C[C@@H](NC(=O)Nc2c(C)c(-c3cnc4c(c3)OCC(=O)N4)nn2-c2ccccc2)[C@H](c2cnc(F)c(F)c2)O1` (racemic) [Compound I-337], for which the IC50 is less than 100 nM.

The experiment is the same for the next values; noted with them: Table 156, human TrkA inhibition; read-out: IC50.
On to `COCCN1C[C@@H](NC(=O)Nc2c(C)c(C)nn2-c2ccccc2)[C@H](c2ccnc(F)c2)O1` (racemic) [Compound I-522], for which the IC50 was less than 100 nM.
Regarding `Cc1c(OCC2CCNCC2)nn(-c2ccccc2)c1NC(=O)N[C@@H]1CN(CCF)O[C@H]1c1ccc(F)c(F)c1` (racemic) [Compound I-560], the IC50 was less than 100 nM.
For `COCCN1C[C@@H](NC(=O)Nc2c(C)c(OCC3CNCCO3)nn2-c2ccccc2)[C@H](c2ccc(F)c(F)c2)O1` (single isomer, unassigned) [Compound I-576], the IC50 is less than 100 nM.
Consider `COCCN1C[C@@H](NC(=O)Nc2c(C)c(OCC3CN(C(C)=O)CCO3)nn2-c2ccccc2)[C@H](c2ccc(F)c(F)c2)O1` (single isomer, unassigned) [Compound I-577], for which the IC50 is less than 100 nM.
Regarding `COCCN1C[C@@H](NC(=O)Nc2c(C)c(OC3CN(C(=O)OC(C)(C)C)C3)nn2-c2ccccc2)[C@H](c2ccc(F)c(F)c2)O1` [Compound I-573], the IC50 is less than 100 nM.

Still in this experiment, the particulars now being: Table 157, human TrkA inhibition; read-out: IC50.
For the molecule `CCN1C[C@@H](NC(=O)Nc2c(C)c(OCCCC(=O)NC)nn2-c2ccccc2)[C@H](c2ccc(F)c(F)c2)O1` (racemic) [Compound I-659], the IC50 is less than 100 nM.
Turning to `COCCN1C[C@@H](NC(=O)Nc2c(C)c(OCC(O)CO)nn2-c2ccccc2)[C@H](c2ccc(F)c(F)c2)O1` (stereo partly drawn) [Compound I-615], the IC50 is less than 100 nM.
As for `CNC(=O)c1cc(-c2nn(-c3ccccc3)c(NC(=O)N[C@@H]3CN(CCOC)O[C@H]3c3ccc(F)c(F)c3)c2C)ccn1` [Compound I-595], the IC50 was less than 100 nM.
Consider `CCN1C[C@@H](NC(=O)Nc2c(C)c(OC3CN(C)C3)nn2-c2ccccc2)[C@H](c2ccc(F)c(F)c2)O1` (racemic) [Compound I-632], for which the IC50 is 100 to 1000 nM.
For the molecule `COCCN1C[C@@H](NC(=O)Nc2c(C)c(-c3cnc(N4CC(N(C)C)C4)nc3)nn2-c2ccccc2)[C@H](c2ccnc(F)c2)O1` (racemic) [Compound I-582], the IC50 was less than 100 nM.
Consider `CCN1C[C@@H](NC(=O)Nc2c(C)c(OCC3CN(C)C3)nn2-c2ccccc2)[C@H](c2ccc(F)c(F)c2)O1` (racemic) [Compound I-658], for which the IC50 was less than 100 nM.
With `COCCN1C[C@@H](NC(=O)Nc2c(C)c(-c3cnc4nc(C)oc4c3)nn2-c2ccccc2)[C@H](c2ccnc(F)c2)O1` (racemic) [Compound I-616], the IC50 is less than 100 nM.
`COCCN1C[C@@H](NC(=O)Nc2c(C)c(-c3cnc(N4C[C@H]5C[C@@H]4CO5)nc3)nn2-c2ccccc2)[C@H](c2ccnc(F)c2)O1` [Compound I-590]: the IC50 was less than 100 nM.
Consider `CCN1C[C@@H](NC(=O)Nc2c(C)c(OCCCC(=O)NCCO)nn2-c2ccccc2)[C@H](c2ccc(F)c(F)c2)O1` (racemic) [Compound I-668], for which the IC50 is less than 100 nM.
As to `CCN1C[C@@H](NC(=O)Nc2c(C)c(-c3cnc(C(N)=O)c(F)c3)nn2-c2ccccc2)[C@H](c2ccc(F)c(F)c2)O1` (racemic) [Compound I-612], the IC50 was less than 100 nM.
Still for that read-out and setting: as for `CCCN1C[C@@H](NC(=O)Nc2c(C)c(-c3cnc(OC)nc3)nn2-c2ccccc2)[C@H](c2ccc(F)c(F)c2)O1` (racemic) [Compound I-676], the figure is less than 100 nM.
Consider `CNC(=O)COc1nn(-c2ccccc2)c(NC(=O)N[C@@H]2CN(CCOC)O[C@H]2c2ccnc(F)c2)c1C` (racemic) [Compound I-634], for which the IC50 is less than 100 nM.
Regarding `Cc1c(-c2ccncc2)nn(-c2ccccc2)c1NC(=O)N[C@@H]1CN(CC(F)F)O[C@H]1c1ccc(F)c(F)c1` (racemic) [Compound I-630], the IC50 was less than 100 nM.
For `COCCN1C[C@@H](NC(=O)Nc2c(C)c(-c3cnc4oc(C)nc4c3)nn2-c2ccccc2)[C@H](c2ccnc(F)c2)O1` (racemic) [Compound I-596], the IC50 is less than 100 nM.

Staying with this experiment, now noted: human TrkA 1 nmol/L, ATP 500 μmol/L, 120 min at 37° C.; read-out: IC50 values (TrkA phosphorylation inhibition).
As to `COCC[C@@H]1C[C@@H](NC(=O)Nc2c(C)c(-c3cnc4c(cnn4C)c3)nn2-c2ccccc2)[C@H](c2ccnc(F)c2)O1` [Compound I-236], the IC50 was 1.4 nM.
As for `CCN1C[C@@H](NC(=O)Nc2c(C)c(OCC(N)=O)nn2-c2ccccc2)[C@H](c2ccc(F)c(F)c2)O1` (racemic) [Compound I-645], the IC50 is 68 nM.
The same measure, in the same setting: as for `COCCN1C[C@@H](NC(=O)Nc2c(C)c(OCCCN(C)C)nn2-c2ccccc2)[C@H](c2ccc(F)c(F)c2)O1` [Compound I-552], the figure is 1.7 nM; as for `CNC(=O)c1cc(-c2nn(-c3ccccc3)c(NC(=O)N[C@@H]3CN(CCOC)O[C@H]3c3ccnc(F)c3)c2C)nn(C)c1=O` (racemic) [Compound I-302], 8.2 nM; as for `CNC(=O)c1cc(-c2nn(-c3ccccc3)c(NC(=O)N[C@@H]3CN(C)O[C@H]3c3ccc(F)c(F)c3)c2C)cn(C)c1=O` (racemic) [Compound I-193], 4 nM.
Consider `COCCN1C[C@@H](NC(=O)Nc2c(C)c(-c3cnc(C)nc3)nn2-c2ccccc2)[C@H](c2ccnc(F)c2)O1` (racemic) [Compound I-47], for which the IC50 amounted to 4 nM.
